From patent US20070122859A1, “Immunoassay for LSD and 2-oxo-3-hydroxy-LSD” (priority 2000, published 2007)
Like-named read-outs stand apart in the source and are kept apart here.

How the values were obtained:
[1] = system: antibodies specific for LSD; details: CEDIA (Microgenics Corporation) immunoassay; cited from earlier work
Clone 20.2 = test: ELISA antibody cross-reactivity, Clone 20.2; type: binding, mouse
Method: (§1) Cross-reactivity of three clones for LSD, nor-LSD and 2-oxo-3-hydroxy-LSD was determined using an ELISA technique. Microtiter plates were coated with 100 μl of 0.325 mg/ml LSD-BSA or 100 μl of 0.325 mg/ml 2-oxo-3-hydroxy-LSD-BSA for 1 hour at 37° C. and post-blocked with 200 μl of 1% BSA in PBS for 1 hour at room temperature. Plates were washed 3 times with 400 μl of PBS-0.1% TWEEN-20. Free LSD, nor-LSD and 2-oxo-3-hydroxy-LSD were diluted to 1000 ng/ml in PBS. Antibody was diluted 8,000 fold. Drug solutions, 200 μl of 1000 ng/ml, solutions were dispensed into the first column of an ELISA plate. The rest of the wells were filled with 100 μl of PBS. Serial dilutions of the drugs were prepared by taking 100 μl of the drug solution out of the first column and dispensing it into the second column of the plate. Contents of the wells were mixed thoroughly by pipetting the solution up and down 5 times. 100 μl out of the second column was dispensed into the third column and mixed as above. The process was repeated for all 12 columns of ELISA plates. 100 μl of solution out of the last wells was discarded. 100 μl of antibody diluted 8,000 fold was added to each well. Resulting concentrations of the drug were 500 ng/ml, 250 ng/ml, 125 ng/ml, 62.5 ng/ml, 31.2 ng/ml, 15.6 ng/ml, 7.81 ng/ml, 3.90 ng/ml, 1.95 ng/ml, 0.976 ng/ml, 0.488 ng/ml, 0.244 ng/ml. Final antibody dilution was 16,000 fold. Plates were incubated for 1 hour at 37° C. and washed 3 times with PBS-TWEEN-20. Rabbit anti-mouse HRP conjugated IgG was diluted 5,000 fold and 100 μl were added to ELISA plates. The plates were incubated for 1 hour at 37° C. and washed 3 times with PBS-TWEEN-20. 100 μl of K-BLUE substrate was dispensed into each well. Plates were incubated for 30 min at room temperature in the dark. The reaction was stopped with 100 μl of 2 M H3PO4, and absorbance was read at 450 nm.

[2] = cited from earlier work
[3] = system: antibodies specific for LSD; details: KIMS (Roche Diagnostics) immunoassay; cited from earlier work
[4] = system: antibodies specific for LSD; details: EMIT (Syva Company) immunoassay; cited from earlier work
Clone 2.1 = test: ELISA antibody cross-reactivity, Clone 2.1; type: binding, mouse
Method: as §1

Clone 1.1 = test: ELISA antibody cross-reactivity, Clone 1.1; type: binding, mouse
Method: as §1

[5] = Dilution 0.2 (free drug 0.244 ng/ml)
[6] = Dilution 0.5 (free drug 0.488 ng/ml)
[7] = Dilution 1.0 (free drug 0.976 ng/ml)
[8] = Dilution 2.0 (free drug 1.95 ng/ml)
[9] = Dilution 3.9 (free drug 3.90 ng/ml)
[10] = Dilution 7.8 (free drug 7.81 ng/ml)
[11] = Dilution 15.6 (free drug 15.6 ng/ml)
[12] = Dilution 31.3 (free drug 31.2 ng/ml)
[13] = Dilution 62.5 (free drug 62.5 ng/ml)
[14] = Dilution 125.0 (free drug 125 ng/ml)
[15] = Dilution 250.0 (free drug 250 ng/ml)
[16] = Dilution 500.0 (free drug 500 ng/ml)
[17] = based upon specificity to 2-oxo-3-hydroxy-LSD

## CCN(CC)C(=O)[C@@H]1C=C2c3cccc4c3C(O)(C[C@H]2N(C)C1)C(=O)N4 (stereo partly drawn) [2-oxo-3-hydroxy-LSD, 2-oxo-3-hydroxy-d-lysergic acid diethylamide]
[1]
  cross-reactivity: 1.8%
Clone 20.2; [5]
  A450: 0.838
Clone 20.2; [6]
  A450: 0.704
Clone 20.2; [7]
  A450: 0.430
Clone 20.2; [8]
  A450: 0.372
Clone 20.2; [9]
  A450: 0.316
Clone 20.2; [10]
  A450: 0.272
Clone 20.2; [11]
  A450: 0.220
Clone 20.2; [12]
  A450: 0.148
Clone 20.2; [13]
  A450: 0.142
Clone 20.2; [14]
  A450: 0.143
Clone 20.2; [15]
  A450: 0.144
Clone 20.2; [16]
  A450: 0.142
Clone 20.2; [17]
  Calculated percentage cross-reactivity: 100.0%
Clone 20.2; based upon specificity to LSD
  Calculated percentage cross-reactivity: 118.5%
[2]; urine, compared with LSD
  time detectable after ingestion of the drug: can be detected for a longer time than LSD
[3]
  cross-reactivity: 11%
[4]
  cross-reactivity: 1.7%
Clone 2.1; [5]
  A450: 0.846
Clone 2.1; [6]
  A450: 0.690
Clone 2.1; [7]
  A450: 0.552
Clone 2.1; [8]
  A450: 0.531
Clone 2.1; [9]
  A450: 0.372
Clone 2.1; [10]
  A450: 0.321
Clone 2.1; [11]
  A450: 0.294
Clone 2.1; [12]
  A450: 0.309
Clone 2.1; [13]
  A450: 0.243
Clone 2.1; [14]
  A450: 0.256
Clone 2.1; [15]
  A450: 0.297
Clone 2.1; [16]
  A450: 0.243
Clone 2.1; [17]
  Calculated percentage cross-reactivity: 100.0%
Clone 2.1; based upon specificity to LSD
  Calculated percentage cross-reactivity: 131.4%
Clone 1.1; [5]
  A450: 3.913
Clone 1.1; [6]
  A450: 3.928
Clone 1.1; [7]
  A450: 4.033
Clone 1.1; [8]
  A450: 4.015
Clone 1.1; [9]
  A450: 3.908
Clone 1.1; [10]
  A450: 3.914
Clone 1.1; [11]
  A450: 3.310
Clone 1.1; [12]
  A450: 3.108
Clone 1.1; [13]
  A450: 2.278
Clone 1.1; [14]
  A450: 1.768
Clone 1.1; [15]
  A450: 1.425
Clone 1.1; [16]
  A450: 0.871
Clone 1.1; [17]
  Calculated percentage cross-reactivity: 100.0%
Clone 1.1; based upon specificity to LSD
  Calculated percentage cross-reactivity: 133.6%

## CCN(CC)C(=O)[C@@H]1C=C2c3cccc4[nH]cc(c34)C[C@H]2N(C)C1 [LSD, 9,10-didehydro-N,N-diethyl-6-methylergoline-8β-carboxamide]
Clone 20.2; [5]
  A450: 0.833
Clone 20.2; [6]
  A450: 0.658
Clone 20.2; [7]
  A450: 0.587
Clone 20.2; [8]
  A450: 0.328
Clone 20.2; [9]
  A450: 0.284
Clone 20.2; [10]
  A450: 0.204
Clone 20.2; [11]
  A450: 0.160
Clone 20.2; [12]
  A450: 0.126
Clone 20.2; [13]
  A450: 0.126
Clone 20.2; [14]
  A450: 0.124
Clone 20.2; [15]
  A450: 0.188
Clone 20.2; [16]
  A450: 0.122
Clone 20.2; [17]
  Calculated percentage cross-reactivity: 84.4%
Clone 20.2; based upon specificity to LSD
  Calculated percentage cross-reactivity: 100.0%
[2]; human urine
  parent drug excreted in human urine: about 1%
Clone 2.1; [5]
  A450: 0.831
Clone 2.1; [6]
  A450: 0.738
Clone 2.1; [7]
  A450: 0.579
Clone 2.1; [8]
  A450: 0.523
Clone 2.1; [9]
  A450: 0.435
Clone 2.1; [10]
  A450: 0.339
Clone 2.1; [11]
  A450: 0.303
Clone 2.1; [12]
  A450: 0.294
Clone 2.1; [13]
  A450: 0.252
Clone 2.1; [14]
  A450: 0.240
Clone 2.1; [15]
  A450: 0.234
Clone 2.1; [16]
  A450: 0.236
Clone 2.1; [17]
  Calculated percentage cross-reactivity: 76.1%
Clone 2.1; based upon specificity to LSD
  Calculated percentage cross-reactivity: 100.0%
Clone 1.1; [5]
  A450: 3.797
Clone 1.1; [6]
  A450: 4.085
Clone 1.1; [7]
  A450: 3.962
Clone 1.1; [8]
  A450: 3.905
Clone 1.1; [9]
  A450: 3.951
Clone 1.1; [10]
  A450: 3.831
Clone 1.1; [11]
  A450: 3.519
Clone 1.1; [12]
  A450: 3.390
Clone 1.1; [13]
  A450: 2.633
Clone 1.1; [14]
  A450: 2.050
Clone 1.1; [15]
  A450: 1.433
Clone 1.1; [16]
  A450: 0.831
Clone 1.1; [17]
  Calculated percentage cross-reactivity: 74.9%
Clone 1.1; based upon specificity to LSD
  Calculated percentage cross-reactivity: 100.0%

## CCN(CC)C(=O)[C@@H]1C=C2c3cccc4[nH]cc(c34)C[C@H]2NC1 [nor-LSD, N-desmethyl-LSD]
Clone 20.2; [5]
  A450: 0.908
Clone 20.2; [6]
  A450: 0.866
Clone 20.2; [7]
  A450: 0.853
Clone 20.2; [8]
  A450: 0.799
Clone 20.2; [9]
  A450: 0.722
Clone 20.2; [10]
  A450: 0.656
Clone 20.2; [11]
  A450: 0.584
Clone 20.2; [12]
  A450: 0.464
Clone 20.2; [13]
  A450: 0.416
Clone 20.2; [14]
  A450: 0.292
Clone 20.2; [15]
  A450: 0.228
Clone 20.2; [16]
  A450: 0.288
Clone 20.2; [17]
  Calculated percentage cross-reactivity: 4.6%
Clone 20.2; based upon specificity to LSD
  Calculated percentage cross-reactivity: 5.5%
Clone 2.1; [5]
  A450: 0.900
Clone 2.1; [6]
  A450: 0.859
Clone 2.1; [7]
  A450: 0.842
Clone 2.1; [8]
  A450: 0.792
Clone 2.1; [9]
  A450: 0.786
Clone 2.1; [10]
  A450: 0.696
Clone 2.1; [11]
  A450: 0.648
Clone 2.1; [12]
  A450: 0.504
Clone 2.1; [13]
  A450: 0.444
Clone 2.1; [14]
  A450: 0.384
Clone 2.1; [15]
  A450: 0.318
Clone 2.1; [16]
  A450: 0.276
Clone 2.1; [17]
  Calculated percentage cross-reactivity: 1.8%
Clone 2.1; based upon specificity to LSD
  Calculated percentage cross-reactivity: 2.3%
Clone 1.1; [5]
  A450: 4.019
Clone 1.1; [6]
  A450: 4.074
Clone 1.1; [7]
  A450: 4.100
Clone 1.1; [8]
  A450: 3.884
Clone 1.1; [9]
  A450: 4.035
Clone 1.1; [10]
  A450: 3.805
Clone 1.1; [11]
  A450: 3.740
Clone 1.1; [12]
  A450: 3.735
Clone 1.1; [13]
  A450: 3.601
Clone 1.1; [14]
  A450: 3.512
Clone 1.1; [15]
  A450: 3.340
Clone 1.1; [16]
  A450: 2.968
Clone 1.1; [17]
  Calculated percentage cross-reactivity: 1.9%
Clone 1.1; based upon specificity to LSD
  Calculated percentage cross-reactivity: 2.6%
